Experimental findings from ChEMBL document CHEMBL3751819, “Navigating into the chemical space between MGCD0103 and SAHA: novel histone deacetylase inhibitors as a promising lead” (Medchemcomm, 2015) are described below.

SMILES strings stand for the structures. Bounds are passed on as bounds.

In data set [1] the test system is A549. As to the kind of experiment: Antiproliferative activity against human A549 cells assessed as reduction in cell viability after 48 hrs by MTT assay. In kind it is functional, cell-based. Conditions: A549, 48 h. (In general: Tetrazolium dyes change colour on reduction, which living cells bring about.)
Another data set deals with HepG2. Nature of the data set: Antiproliferative activity against human HepG2 cells assessed as reduction in cell viability after 72 hrs by MTT assay. Particulars: HepG2, 72 h. In kind it is functional, cell-based.
The nature of data set [2]: Antiproliferative activity against human HCT116 cells assessed as reduction in cell viability after 48 hrs by MTT assay. In kind it is functional, cell-based. Conditions: HCT-116, 48 h.
The subject of data set [3] is MCF7. As to the kind of experiment: Antiproliferative activity against human MCF7 cells assessed as reduction in cell viability after 48 hrs by MTT assay. Conditions: MCF7, 48 h. In kind it is functional, cell-based.
Data set [4] has as its system MCF7. As to the kind of experiment: Antiproliferative activity against human MCF7 cells assessed as reduction in cell viability after 72 hrs by MTT assay. In kind it is functional, cell-based. Particulars: MCF7, 72 h.
Data set [5] has as its system HeLa. As to the kind of experiment: Induction of apoptosis in human HeLa cells assessed as early apoptotic cells at 1.25 uM after 48 hrs by annexin-V-FITC/propidium iodide staining based flow cytometry (reference value: 1.4%). In kind it is functional. (In general: A flow cytometer gives signals particle by particle.)
Data set [6] concerns HeLa. As to the kind of experiment: Induction of apoptosis in human HeLa cells assessed as late apoptotic cells at 1.25 uM after 48 hrs by annexin-V-FITC/propidium iodide staining based flow cytometry (reference value: 9.3%). In kind it is functional.
Data set [7] concerns HeLa. As to the kind of experiment: Induction of apoptosis in human HeLa cells assessed as necrotic cells at 1.25 uM after 48 hrs by annexin-V-FITC/propidium iodide staining based flow cytometry (reference value: 0.693%). In kind it is functional.
For data set [8], the system named is HeLa. Nature of the data set: Induction of apoptosis in human HeLa cells assessed as viable cells at 2.5 uM after 48 hrs by annexin-V-FITC/propidium iodide staining based flow cytometry (reference value: 88.6%). In kind it is functional. Conditions: Homo sapiens, HeLa, 48 h; read-out: Activity.
Data set [9] deals with HeLa. As to the kind of experiment: Induction of apoptosis in human HeLa cells assessed as early apoptotic cells at 2.5 uM after 48 hrs by annexin-V-FITC/propidium iodide staining based flow cytometry (reference value: 1.4%). In kind it is functional.
Data set [10] concerns HeLa. As to the kind of experiment: Induction of apoptosis in human HeLa cells assessed as necrotic cells at 2.5 uM after 48 hrs by annexin-V-FITC/propidium iodide staining based flow cytometry (reference value: 0.693%). In kind it is functional.
For data set [11], the system named is HeLa. As to the kind of experiment: Induction of apoptosis in human HeLa cells assessed as early apoptotic cells at 5 uM after 48 hrs by annexin-V-FITC/propidium iodide staining based flow cytometry (reference value: 1.4%). In kind it is functional.
The subject of data set [12] is HeLa. Nature of the data set: Induction of apoptosis in human HeLa cells assessed as late apoptotic cells at 5 uM after 48 hrs by annexin-V-FITC/propidium iodide staining based flow cytometry (reference value: 9.3%). In kind it is functional.
Data set [13] has as its system HeLa. As to the kind of experiment: Induction of cell cycle arrest in human HeLa cells assessed as accumulation at S phase at 2 uM after 24 hrs by propidium iodide staining based flow cytometry (reference value: 0.12 to 0.13%). In kind it is functional.
Data set [14] concerns HeLa. Nature of the data set: Induction of cell cycle arrest in human HeLa cells assessed as accumulation at G2/M phase at 1 uM after 24 hrs by propidium iodide staining based flow cytometry (reference value: 0.35 to 0.37%). In kind it is functional.
For another data set, the target named is Histone deacetylase 1 (Homo sapiens, UniProt Q13547). Nature of the data set: Inhibition of HDAC1 (unknown origin) using Boc-Lys(acetyl)-AMC as substrate preincubated for 5 mins followed by substrate addition by fluorescence assay.
Histone deacetylase 1, sequence (Q13547 whole entry): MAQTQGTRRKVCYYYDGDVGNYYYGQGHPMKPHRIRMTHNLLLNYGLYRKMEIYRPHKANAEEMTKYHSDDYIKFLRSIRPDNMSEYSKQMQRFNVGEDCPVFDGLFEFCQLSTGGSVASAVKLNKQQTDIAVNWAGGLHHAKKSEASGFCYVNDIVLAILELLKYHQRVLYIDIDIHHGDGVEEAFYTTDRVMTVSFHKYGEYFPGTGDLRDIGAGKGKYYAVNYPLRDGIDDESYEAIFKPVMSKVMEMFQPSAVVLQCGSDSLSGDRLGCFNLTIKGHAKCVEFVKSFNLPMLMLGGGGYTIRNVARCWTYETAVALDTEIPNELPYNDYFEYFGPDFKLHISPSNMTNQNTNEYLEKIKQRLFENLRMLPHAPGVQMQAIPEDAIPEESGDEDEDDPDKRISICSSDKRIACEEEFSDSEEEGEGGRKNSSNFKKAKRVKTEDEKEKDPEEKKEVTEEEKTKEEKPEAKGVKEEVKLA
Another data set addresses Histone deacetylase 2 (Homo sapiens, UniProt Q92769). As to the kind of experiment: Inhibition of HDAC2 (unknown origin) using Boc-Lys(acetyl)-AMC as substrate preincubated for 5 mins followed by substrate addition by fluorescence assay.
The target in data set [15] is T1, Protein deacetylase HDAC6 (Homo sapiens, UniProt Q9UBN7).
T1 sequence (Q9UBN7 whole entry): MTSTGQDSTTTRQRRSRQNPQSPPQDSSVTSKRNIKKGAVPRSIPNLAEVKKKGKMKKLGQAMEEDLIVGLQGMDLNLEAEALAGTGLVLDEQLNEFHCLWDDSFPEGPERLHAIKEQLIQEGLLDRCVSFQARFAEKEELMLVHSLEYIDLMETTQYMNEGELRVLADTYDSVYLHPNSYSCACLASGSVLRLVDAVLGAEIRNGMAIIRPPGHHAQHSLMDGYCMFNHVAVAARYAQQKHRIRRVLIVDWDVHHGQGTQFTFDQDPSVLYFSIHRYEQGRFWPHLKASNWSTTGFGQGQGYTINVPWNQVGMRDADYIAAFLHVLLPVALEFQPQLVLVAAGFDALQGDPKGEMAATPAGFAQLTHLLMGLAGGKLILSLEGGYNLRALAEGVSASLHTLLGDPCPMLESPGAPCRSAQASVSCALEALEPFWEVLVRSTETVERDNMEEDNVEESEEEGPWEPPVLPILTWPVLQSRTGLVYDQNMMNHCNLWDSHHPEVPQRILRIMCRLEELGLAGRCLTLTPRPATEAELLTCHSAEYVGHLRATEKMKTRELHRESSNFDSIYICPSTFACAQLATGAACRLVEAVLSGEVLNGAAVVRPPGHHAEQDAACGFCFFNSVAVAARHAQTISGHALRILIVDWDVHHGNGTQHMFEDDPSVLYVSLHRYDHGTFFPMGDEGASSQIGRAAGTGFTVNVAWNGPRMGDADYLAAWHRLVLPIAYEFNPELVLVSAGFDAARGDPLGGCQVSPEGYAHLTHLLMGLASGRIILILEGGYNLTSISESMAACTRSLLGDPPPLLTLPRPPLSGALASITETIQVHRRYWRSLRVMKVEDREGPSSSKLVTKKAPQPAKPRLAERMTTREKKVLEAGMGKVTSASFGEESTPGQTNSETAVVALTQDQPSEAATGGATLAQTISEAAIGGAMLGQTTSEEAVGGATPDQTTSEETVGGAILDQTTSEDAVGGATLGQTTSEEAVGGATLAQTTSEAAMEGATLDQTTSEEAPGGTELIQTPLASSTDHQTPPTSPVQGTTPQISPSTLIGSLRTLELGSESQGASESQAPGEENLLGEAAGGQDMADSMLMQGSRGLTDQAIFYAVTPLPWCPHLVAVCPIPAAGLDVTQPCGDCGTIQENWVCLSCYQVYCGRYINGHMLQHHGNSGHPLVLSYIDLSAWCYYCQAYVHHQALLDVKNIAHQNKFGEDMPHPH
Nature of the data set: Inhibition of HDAC6 (unknown origin) using Boc-Lys(acetyl)-AMC as substrate preincubated for 5 mins followed by substrate addition by fluorescence assay.

A short description of data set [16]: Half life in artificial gastric fluid. In kind it is ADME.
Data set [17] in a line: Half life in mouse plasma. In kind it is ADME, cell-free.
For data set [18], the system named is A549. Nature of the data set: Antiproliferative activity against human A549 cells assessed as reduction in cell viability after 24 hrs by MTT assay. In kind it is functional, cell-based. Particulars: A549, 24 h.

Histone deacetylase 2, sequence (Q92769 whole entry): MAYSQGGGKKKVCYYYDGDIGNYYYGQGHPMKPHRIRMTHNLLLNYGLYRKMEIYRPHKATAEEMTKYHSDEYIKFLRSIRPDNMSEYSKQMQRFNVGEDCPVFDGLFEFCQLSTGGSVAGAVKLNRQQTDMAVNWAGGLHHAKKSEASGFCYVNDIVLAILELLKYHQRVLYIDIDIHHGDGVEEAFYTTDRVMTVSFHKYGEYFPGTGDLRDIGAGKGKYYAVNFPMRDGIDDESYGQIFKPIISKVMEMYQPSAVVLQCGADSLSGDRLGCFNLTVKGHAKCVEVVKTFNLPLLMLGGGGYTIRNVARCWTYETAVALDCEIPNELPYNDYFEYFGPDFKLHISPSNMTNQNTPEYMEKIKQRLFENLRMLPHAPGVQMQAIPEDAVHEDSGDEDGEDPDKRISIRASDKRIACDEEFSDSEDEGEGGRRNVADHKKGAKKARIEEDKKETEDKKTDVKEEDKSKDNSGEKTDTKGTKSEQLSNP

What is called IC50 is the midpoint of a concentration-inhibition curve. By half-life is commonly meant the time in which the quantity being followed falls by half. With `O=C(NO)c1ccc(CNc2nccc(-c3cccnc3)n2)cc1`, the half-inhibitory concentration (IC50) in the data set on A549 [1] was 11900 nM; in the data set with HepG2 it was 2960 nM; in data set [2], less than 880 nM; in the data set with MCF7 [3] it was 16000 nM; in the data set with MCF7 [4], 2410 nM; on Histone deacetylase 1, 65 nM. Further, the IC50 was determined as 134 nM on Histone deacetylase 2 and 78 nM in [15]. Also, the Activity in the data set with HeLa [5] turned out to be 4.89%; with HeLa [6] it was 14.9%; in the data set on HeLa [7], 0.94%; in the data set with HeLa [9], 6.33%; in the data set on HeLa [10] it was 0.72%; in the data set with HeLa [11] it was 11.1%. Also, the Activity in the data set with HeLa [12] is 11.7%; with HeLa [13] it was 0.03%; in the data set with HeLa [14], 0.31%. The viability at 2.5 µM with HeLa [8] is 81.1%. Further, the half-life in data set [16] is greater than 24 h; in data set [17], 12 h.
`O=C(/C=C/c1ccc(CNc2nccc(-c3cccnc3)n2)cc1)NO`: the IC50 with A549 [18] is 98000 nM; with A549 [1], 8320 nM; in the data set with HepG2 it was 6520 nM; in [2] it was less than 810 nM; in the data set with MCF7 [3], 23000 nM; with MCF7 [4], 2660 nM. In addition, the values for the IC50 (against Histone deacetylase 1; on Histone deacetylase 2; in data set [15]) were 82 nM, 187 nM and 69 nM, respectively. Besides, the Activity came to 4.27% with HeLa [5]; 12.2% in the data set with HeLa [6]; 0.924% in the data set with HeLa [7]; 6.59% with HeLa [9]; 0.603% in the data set on HeLa [10]; 10.2% with HeLa [11]. The Activity came to 12.4% in the data set with HeLa [12], 0.03% with HeLa [13] and 0.29% in the data set with HeLa [14]. For the same molecule, in the data set with HeLa [8], the viability at 2.5 µM was determined as 79.6%. Moreover, the half-life in [16] was greater than 24 h; in [17], 10 h.
